Results published in the METLIN SMRT retention time set (Domingo-Almenara et al. 2019).

Assay: gradient 5% acetonitrile 3 min, to 50% in 2 min, to 85% in 15 min, held 3 min, 100 µL/min
Settings: column: Zorbax Extend-C18 2.1 x 50 mm; eluents: water / acetonitrile, 0.1% formic acid
Summary of the method: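 A Zorbax Extend-C18 column (2.1 × 50 mm, 1.8 μm) run at 100 μL/min with water and acetonitrile, both containing 0.1% formic acid, separated mixtures of ~100 pure standards. The HPLC was coupled to a quadrupole time-of-flight mass spectrometer operated in positive and negative ionization mode, with dead and dwell volumes of 40 μL and 900 μL. Each retention time was taken from a computationally picked adduct peak that was then manually inspected.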

SMILES	RP-LC retention time
Cn1nccc1-c1cccc(-c2noc(-c3cccc(NC(=O)c4ccco4)c3)n2)c1	991 s
O=C(CCNNC(=O)c1ccncc1)NCc1ccccc1	636 s
Cc1nc2c(c(SCC(=O)Nc3nc(-c4ccccc4)cs3)n1)CCC2	982 s
Cc1nc2scc(C)n2c(=O)c1S(=O)(=O)N1CCN(c2ccccn2)CC1	584 s
COc1ccccc1N1CCN(C(=O)c2ccc(=O)n(Cc3ccc(F)cc3)n2)CC1	763 s
COC(=O)[C@H](Cc1c[nH]c2ccccc12)NC(=O)c1ccc2c(c1)C(=O)N(C1CC1)C2=O	830 s
O=C(NC1CCCCCCC1)C1CCN(C(=O)c2ncn3c2COC(c2ccc(F)cc2)C3)CC1 (stereo not given)	852 s
COc1cccc(CNC(=O)C2(C)CCCN(C(=O)Nc3cccc(Cl)c3C)C2)c1 (stereo not given)	982 s
CCC(=O)N1c2ccc(S(=O)(=O)N3CCCCC3)cc2CC1C(=O)NC1CCCC1 (stereo not given)	883 s
CCn1c(=O)c(N2CCN(C(=O)Nc3ccc(Br)cc3F)CC2)nc2ccccc21	1030 s
Cc1nnc(NC(=O)CSCc2ccco2)s1	632 s
CC[C@@H](C)[C@@H](O)[C@H](C)C(=O)[C@H](C)/C=C(\C)C[C@H](C)[C@@H]1OC(=O)[C@H]1CC	1250 s
COc1cccc(-c2cn3ccn(-c4ccccc4OC)c(=O)c3n2)c1	780 s
CCCC(=O)Nc1ccc(-n2cnc(C(=O)N3CCSCC3)c2)nc1	671 s
Cc1cc(C)cc(Oc2nccn3c(=O)n(CC(=O)Nc4ccccc4)nc23)c1	922 s
O=C(Nc1cccc(C(F)(F)F)c1)C1CCN(c2cc(-n3ccnc3)ncn2)CC1	625 s
Cc1cc(N2CCOCC2)n2nc(CN3CCC(Cc4ccccc4)CC3)nc2n1	641 s
Cc1ccccc1Nc1c(-c2ccc(Cl)cc2)nc2ccc(Br)cn12	1090 s
CCN1CCc2nc(NC(=O)C3CCN(S(=O)(=O)c4ccc(Cl)s4)CC3)sc2C1	656 s
CCc1ccc(C(C)NC(=O)c2cccc(C3CCCN(C(=O)NC(C)C)C3)c2)cc1 (stereo not given)	1010 s
Cn1ccnc1N1CCN(C(=O)CSCc2ccccc2)CC1	571 s
CCCCn1nc2c(S(=O)(=O)N3CCc4ccccc4C3)cccn2c1=O	914 s
CN(C)c1ccc(CNC(=O)CN2CCN(C(=O)Nc3ccc(Br)cc3)CC2=O)cc1	611 s
O=S(=O)(c1cccn2cnnc12)N(Cc1ccccc1F)c1ccc(F)c(F)c1	867 s
Cc1ccc(C)c(NC(=O)C2CC(=O)N(c3ccc4c(c3)CCN4C(=O)C3CC3)C2)c1 (stereo not given)	768 s
CC1CN(C(=O)CSc2nc(-c3ccco3)cc(C(F)(F)F)n2)CC(C)O1 (stereo not given)	952 s
CCCNC(=O)C1CC(=O)N(c2ccc3c(c2)CCN3C(=O)C2CC2)C1 (stereo not given)	659 s
O=C1CCN(C(=O)C2CCN(C(=O)c3ccoc3)CC2)CCCCCCN1	612 s
Cn1cccc(C(=O)Nc2ccc(N3CCCS3(=O)=O)cc2)c1=O	644 s

Results, then the compound that gave them:

RP-LC retention time	SMILES
795 s	CN(C)C(=O)Cc1ccc(NC(=O)Cc2ccc(-c3ccccc3)cc2)cc1
612 s	CCc1ccccc1S(=O)(=O)N1CCc2nc[nH]c2C1
732 s	O=C(c1ccco1)N1CCC(OCc2nc(C3CC3)no2)CC1
590 s	O=C(CN1CC(c2nc(-c3cccc(Cl)c3)no2)C1)NCC1CCCO1 (stereo not given)
636 s	CCc1nn2c(CNC(=O)c3ccccc3Br)c(C)nc2s1
957 s	COc1cccc(-c2noc(Cn3c(=O)n(-c4ccccc4F)c(=O)c4sccc43)n2)c1
1120 s	CCCN(c1ccc(OCC)cc1)c1nc(C(=O)OCC)nc2ccccc12
959 s	O=C(Nc1ccc(N2CCOCC2)c(Br)c1)c1ccc2c(c1)OCCCO2
804 s	CCCCN(C)C(=O)c1ccc2c(c1)Sc1ncccc1C(=O)N2C(C)C
868 s	COc1ccc(CNC(=O)c2ccc3c(c2)N(C)C(=O)C2CCCCN32)c(OC)c1 (stereo not given)
895 s	CSc1ccccc1-c1nnc(NC(=O)C(c2ccccc2)c2ccccc2)o1
664 s	Cc1cn(C)c(CC(=O)N2CCCCCC2)c1C(=O)O
1170 s	CCOc1cccc(-c2noc(Cn3nc(-c4ccc(C)cc4)ccc3=O)n2)c1
869 s	Cc1cc(C)cc(NS(=O)(=O)c2cc3n(c2)CCN(CC(C)C)C3=O)c1
626 s	CN1CCN(CCCNc2ccc(-c3nc(-c4ccc(F)cc4)no3)cn2)CC1
954 s	Cc1ccc(-n2c(N3CCCC(C(=O)NCc4ccccc4C)C3)nc3ccsc3c2=O)cc1 (stereo not given)
1050 s	CCc1cc(-c2csc(S(=O)(=O)Nc3cc(C)cc(C)c3)c2)on1
685 s	Cc1noc([C@@H]2CC(F)(F)CN2C(=O)c2ocnc2C)n1

RP-LC retention time	SMILES
751 s	CCC1CN(C(=O)N2CCC(C(=O)N3CCN(C(=O)c4ccco4)CC3)CC2)c2ccccc2O1 (stereo not given)
952 s	Cn1c(=O)c2c(ncn2CCCNCC(O)c2cc(O)cc(O)c2)n(C)c1=O (stereo not given)
922 s	COc1ccc(NC(=O)c2c(N3CCCC3=O)c3cc(F)ccc3n2C)cc1
984 s	CC(C)(C)c1noc(-c2cccnc2-n2cnc(C(=O)Nc3ccc(F)cc3)c2)n1
915 s	Fc1cccc(Cc2nc(-c3cccc(-c4ccn[nH]4)c3)no2)c1
676 s	COc1ccc(OCc2ccc(-c3nc(C#N)c(NCCN(C)C)o3)o2)cc1
701 s	O=S(=O)(Cc1ccccc1)N1CCCCC1c1nc(-c2cccnc2)n[nH]1 (stereo not given)
912 s	Cc1noc(C)c1-c1ccc(S(=O)(=O)Nc2ccccc2)cc1
970 s	Cc1ccc(-c2nnc(-c3nn(C)c4c3CN(S(=O)(=O)c3ccccc3F)CC4)o2)cc1
990 s	O=C(Nc1cccc2c1CCCC2)C1CCN(S(=O)(=O)c2cccc3nonc23)CC1
654 s	COc1ccc(CCC(=O)c2c(O)cc(O[C@@H]3O[C@H](CO)[C@@H](O)[C@H](O)[C@H]3O[C@@H]3O[C@@H](C)[C@H](O)[C@@H](O)[C@H]3O)cc2O)cc1O
940 s	Cc1c(C(=O)NC2CC2)cnn1-c1cc(-c2nc(C(C)C)no2)ccn1
828 s	CCc1nc(NC(=O)Cn2nc3c(cc2=O)CCCCC3)sc1C
759 s	CCC(=O)Nc1nc(-c2ccc3c(c2)NC(=O)C(C)O3)c(C)s1 (stereo not given)
734 s	CCCC(O)c1nc2ccccc2n1CC(=O)N(c1ccccc1)C(C)C (stereo not given)
1300 s	Clc1ccc(-c2csc(Nc3ccccc3)n2)cc1Cl
814 s	Cc1cccc(NC(=O)NC2CCN(c3ccccc3)C2=O)c1 (stereo not given)
762 s	CS(=O)(=O)N1CCC(C(=O)Nc2nnc(SCc3cc(F)ccc3F)s2)CC1
